“And” between values parts separate entries of the source, which are not always exact repeats. Identical values can stand only once. Numbers after ± are expanded uncertainties.
Conditions: Fluid (supercritical or subcritical phases); for viscosity: Vibrating wire viscometry; for mass density: Buoyancy - hydrostatic balance with magnetic suspension - one sinker

CCCC [butane]
Conditions	mass density	viscosity
348.15 K, 63.3 kPa	–	0.008591 ± 0.00084 mPa·s
348.15 K, 337.86 kPa	7.2315 ± 0.025 kg/m3	0.008603 ± 0.00084 mPa·s
348.15 K, 337.88 kPa	7.2315 ± 0.025 kg/m3	0.008607 ± 0.00084 mPa·s
348.15 K, 338.38 kPa	7.2445 ± 0.025 kg/m3	0.008599 ± 0.00084 mPa·s
348.15 K, 340.91 kPa	7.3031 ± 0.025 kg/m3	0.008599 ± 0.00084 mPa·s
348.15 K, 454.98 kPa	9.9811 ± 0.029 kg/m3	0.00861 ± 0.00084 mPa·s
348.15 K, 455.21 kPa	9.9833 ± 0.029 kg/m3	0.00861 ± 0.00084 mPa·s
348.15 K, 516.69 kPa	11.497 ± 0.032 kg/m3	0.008615 ± 0.00084 mPa·s
348.15 K, 516.76 kPa	11.497 ± 0.032 kg/m3	0.008618 ± 0.00084 mPa·s
373.13 K, 106.93 kPa	2.0348 ± 0.017 kg/m3	0.009211 ± 0.00085 mPa·s
373.13 K, 106.95 kPa	2.0363 ± 0.017 kg/m3	0.009213 ± 0.00085 mPa·s
373.13 K, 106.98 kPa	2.037 ± 0.017 kg/m3	0.00921 ± 0.00085 mPa·s
373.13 K, 157.77 kPa	3.0215 ± 0.018 kg/m3	0.009217 ± 0.00085 mPa·s
373.13 K, 916.45 kPa	20.053 ± 0.05 kg/m3 and 20.052 ± 0.05 kg/m3	0.009329 ± 0.00085 mPa·s and 0.009334 ± 0.00085 mPa·s
373.14 K, 57.69 kPa	1.0901 ± 0.015 kg/m3	0.009211 ± 0.00085 mPa·s
373.14 K, 57.72 kPa	1.0901 ± 0.015 kg/m3	0.009214 ± 0.00085 mPa·s
373.14 K, 57.76 kPa	1.0909 ± 0.015 kg/m3	0.009207 ± 0.00085 mPa·s
373.14 K, 157.75 kPa	3.0215 ± 0.018 kg/m3	0.00922 ± 0.00085 mPa·s
373.14 K, 210.39 kPa	4.0609 ± 0.019 kg/m3	0.009225 ± 0.00085 mPa·s
373.14 K, 273.38 kPa	5.3326 ± 0.021 kg/m3	0.00923 ± 0.00085 mPa·s
373.14 K, 274.72 kPa	5.3593 ± 0.021 kg/m3	0.009227 ± 0.00085 mPa·s
373.14 K, 493.67 kPa	9.9707 ± 0.029 kg/m3	0.009255 ± 0.00085 mPa·s
373.14 K, 493.81 kPa	9.9744 ± 0.029 kg/m3	0.009247 ± 0.00085 mPa·s
373.14 K, 572.54 kPa	11.724 ± 0.032 kg/m3	0.009263 ± 0.00085 mPa·s
373.14 K, 572.6 kPa	11.728 ± 0.032 kg/m3	0.009259 ± 0.00085 mPa·s
373.14 K, 669.81 kPa	13.955 ± 0.036 kg/m3	0.00928 ± 0.00085 mPa·s
373.14 K, 670 kPa	13.959 ± 0.037 kg/m3	0.009283 ± 0.00085 mPa·s
373.14 K, 751.04 kPa	15.893 ± 0.04 kg/m3	0.009293 ± 0.00085 mPa·s
373.14 K, 838.34 kPa	18.049 ± 0.044 kg/m3	0.009315 ± 0.00085 mPa·s
373.14 K, 1095.4 kPa	24.953 ± 0.06 kg/m3	0.009394 ± 0.00085 mPa·s
373.14 K, 1095.5 kPa	24.958 ± 0.06 kg/m3	0.00939 ± 0.00085 mPa·s
373.14 K, 1123 kPa	–	0.009464 ± 0.00085 mPa·s
373.14 K, 1262.7 kPa	30.019 ± 0.075 kg/m3	0.009463 ± 0.00085 mPa·s
373.14 K, 1263 kPa	30.031 ± 0.075 kg/m3	–
373.15 K, 210.37 kPa	4.0602 ± 0.019 kg/m3	0.009228 ± 0.00085 mPa·s
373.15 K, 344.33 kPa	6.7909 ± 0.024 kg/m3	0.00923 ± 0.00085 mPa·s
373.15 K, 344.35 kPa	6.7909 ± 0.024 kg/m3	0.009234 ± 0.00085 mPa·s
373.15 K, 392.71 kPa	7.8028 ± 0.025 kg/m3	0.009241 ± 0.00085 mPa·s
373.15 K, 439.63 kPa	8.8018 ± 0.027 kg/m3	0.009247 ± 0.00085 mPa·s
373.15 K, 441.23 kPa	8.8343 ± 0.027 kg/m3	0.009243 ± 0.00085 mPa·s
373.15 K, 750.55 kPa	15.881 ± 0.04 kg/m3	0.009298 ± 0.00085 mPa·s
373.15 K, 1366.4 kPa	33.46 ± 0.083 kg/m3	0.009514 ± 0.00085 mPa·s
373.15 K, 1367.1 kPa	33.484 ± 0.083 kg/m3	0.009518 ± 0.00085 mPa·s
423.11 K, 2532.5 kPa	59.203 ± 0.16 kg/m3	0.01157 ± 0.00086 mPa·s
423.12 K, 2534 kPa	59.251 ± 0.16 kg/m3	0.01158 ± 0.00086 mPa·s
423.13 K, 2535.6 kPa	59.303 ± 0.16 kg/m3	0.01157 ± 0.00086 mPa·s
423.16 K, 195.54 kPa	3.2893 ± 0.018 kg/m3	0.0104 ± 0.00085 mPa·s
423.16 K, 195.59 kPa	3.2893 ± 0.018 kg/m3	0.0104 ± 0.00085 mPa·s
423.17 K, 450.91 kPa	7.7808 ± 0.025 kg/m3	0.01045 ± 0.00086 mPa·s
423.17 K, 452.37 kPa	7.8076 ± 0.025 kg/m3	0.01045 ± 0.00086 mPa·s
423.17 K, 1490.2 kPa	29.071 ± 0.074 kg/m3	0.01078 ± 0.00086 mPa·s
423.17 K, 2272.3 kPa	50.31 ± 0.12 kg/m3	0.01129 ± 0.00086 mPa·s
423.19 K, 654.26 kPa	11.533 ± 0.032 kg/m3	0.0105 ± 0.00086 mPa·s
423.19 K, 1490 kPa	29.063 ± 0.074 kg/m3	0.01078 ± 0.00086 mPa·s
423.19 K, 3006 kPa	79.774 ± 0.26 kg/m3	0.01234 ± 0.00087 mPa·s
423.2 K, 653.48 kPa	11.519 ± 0.032 kg/m3	0.01049 ± 0.00086 mPa·s
423.2 K, 2781.1 kPa	69.059 ± 0.2 kg/m3	0.01191 ± 0.00087 mPa·s
423.2 K, 2781.6 kPa	69.058 ± 0.2 kg/m3	0.01191 ± 0.00087 mPa·s
423.2 K, 3005.8 kPa	79.773 ± 0.26 kg/m3	0.01233 ± 0.00087 mPa·s
423.2 K, 3170.2 kPa	89.28 ± 0.32 kg/m3	0.01273 ± 0.00087 mPa·s
423.24 K, 1016.1 kPa	18.65 ± 0.046 kg/m3	0.0106 ± 0.00086 mPa·s
423.25 K, 1015.9 kPa	18.648 ± 0.046 kg/m3	0.01059 ± 0.00086 mPa·s
423.26 K, 884.12 kPa	15.981 ± 0.04 kg/m3	0.01056 ± 0.00086 mPa·s
423.26 K, 884.38 kPa	15.987 ± 0.04 kg/m3	0.01055 ± 0.00086 mPa·s
423.28 K, 3171.4 kPa	89.266 ± 0.32 kg/m3	0.01273 ± 0.00087 mPa·s
423.47 K, 3280.9 kPa	96.663 ± 0.37 kg/m3	0.01307 ± 0.00088 mPa·s
423.48 K, 3280.8 kPa	96.642 ± 0.37 kg/m3	0.01306 ± 0.00088 mPa·s
424.21 K, 3176.8 kPa	88.401 ± 0.28 kg/m3	0.01272 ± 0.00087 mPa·s
424.21 K, 3177 kPa	88.415 ± 0.28 kg/m3	0.01273 ± 0.00087 mPa·s
428.08 K, 194.36 kPa	3.2322 ± 0.018 kg/m3	0.01054 ± 0.00086 mPa·s
428.09 K, 194.34 kPa	3.2308 ± 0.018 kg/m3	0.01053 ± 0.00086 mPa·s
428.09 K, 5149.9 kPa	360.26 ± 0.75 kg/m3	0.04425 ± 0.0011 mPa·s
428.09 K, 5150.2 kPa	360.25 ± 0.75 kg/m3	–

Source: the NIST ThermoML archive (doi:10.1021/acs.jced.5b00654)
